Data taken from patent US5591749A, “Imidazopyridines as serotonergic 5-HT3 -antagonists” (G. D. Searle & Co., priority 1995, dated 1997).
pIC50, pKi: −log10 of the molar value. Values joined by “and” are separate entries in the source; they are usually repeats but may differ in a detail not shown here. Equal values may be shown once. Where a name gives a salt, the structure may show the parent alone. Read-outs that look alike come from different tables or passages of the source.

What was measured:
[1] = molecular target: T1, 5-HT3 (Mus musculus, UniProt P23979); assay: 5-HT3 binding, NG108-15 cells
T1 construct: NG108-15 Cells; endogenous in cells; host or cells: NG108-15 cells
Description: (§1) 5-HT3 antagonism can be determined by the radioligand receptor binding assay as described herein and in the in vivo Bezold-Jarisch reflex procedure.

[2] = test system: 5-HT-induced bradycardia; assay: Bezold-Jarisch reflex (5-HT-induced bradycardia) in pentobarbital anesthetized mice; format: in vivo
Method: as §1
The test sample is administered i.p. (mg/kg) to a group of 3 mice. […] A greater than 50 percent (>50) reduction in the bradycardic response relative to vehicle-treated control mice is considered significant.
This method has been described by Saxena, P. R. and Lawang, A., Arch. Int. Pharmacodyn., 277:235-252, 1985.

[3] = molecular target: T2, 5-HT3 receptor (Rattus norvegicus, UniProt P35563); assay: [3H]-GR65630 radioligand receptor binding assay, rat brain cortex membranes; details: for Hill Coefficient: 0.2 nM [3H]-GR65630
T2 construct: Brain cortices are obtained from male rats and a membrane fraction prepared by standard techniques; from tissue; host or cells: rat brain cortex membranes
T2 sequence (P35563 24-483): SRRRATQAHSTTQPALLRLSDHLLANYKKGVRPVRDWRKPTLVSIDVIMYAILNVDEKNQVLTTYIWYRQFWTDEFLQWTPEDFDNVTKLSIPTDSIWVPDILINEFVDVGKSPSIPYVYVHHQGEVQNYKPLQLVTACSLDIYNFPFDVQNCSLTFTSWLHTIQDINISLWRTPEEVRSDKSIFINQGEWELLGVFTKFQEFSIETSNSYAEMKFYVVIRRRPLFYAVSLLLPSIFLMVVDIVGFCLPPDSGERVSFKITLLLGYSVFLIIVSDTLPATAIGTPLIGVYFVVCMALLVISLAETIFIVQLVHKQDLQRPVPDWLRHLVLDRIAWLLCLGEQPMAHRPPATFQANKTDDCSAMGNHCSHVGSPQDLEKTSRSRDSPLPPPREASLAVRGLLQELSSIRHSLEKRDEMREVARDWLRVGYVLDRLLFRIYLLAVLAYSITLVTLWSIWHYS
Method: as §1
GR65630 binds to the 5-HT3 receptor. Brain cortices are obtained from male rats and a membrane fraction prepared by standard techniques. 0.04 mg of membrane prep is incubated with 0.2 nM [^3 H]-GR656630 for 60 minutes at 22° C. […] Membranes are filtered and washed 3 times and the filters are counted to determine [3H]-GR65630 specifically bound.*
Effect of Reference Compounds on
Kilpatrick GJ, Jones BJ and Tyers MB. Identification and distribution of 5-HT3 receptors in rat brain using radioligand binding. Nature, 330: 746-748, 1987.

[4] = several examples have two IC50 values, read-out: 5-HT3 binding: NG108-15 cells IC50
[5] = Mus musculus, ip, 0.5 h, read-out: Minimum Effective Dose (MED)
[6] = Mus musculus, ip, 0.5 h; read-out: Minimum Effective Dose (MED)

T1 sequence (P23979 24-489): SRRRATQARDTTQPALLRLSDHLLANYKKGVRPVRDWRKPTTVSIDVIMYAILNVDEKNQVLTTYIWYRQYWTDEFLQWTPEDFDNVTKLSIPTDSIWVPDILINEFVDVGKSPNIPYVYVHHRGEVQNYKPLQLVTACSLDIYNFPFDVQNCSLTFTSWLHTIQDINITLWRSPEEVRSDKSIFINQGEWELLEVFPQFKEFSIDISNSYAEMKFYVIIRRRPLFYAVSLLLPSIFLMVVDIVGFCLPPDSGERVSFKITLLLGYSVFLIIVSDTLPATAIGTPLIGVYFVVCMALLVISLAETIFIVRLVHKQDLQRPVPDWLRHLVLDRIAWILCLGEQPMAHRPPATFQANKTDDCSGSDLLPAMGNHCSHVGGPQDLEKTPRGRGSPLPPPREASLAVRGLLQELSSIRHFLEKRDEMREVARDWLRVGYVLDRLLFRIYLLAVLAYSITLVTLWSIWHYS

O=C(N[C@H]1CCN2CCC[C@@H]1C2)c1cc(Cl)cn2ccnc12 (relative stereo) [Example 1, endo-N-(1-Azabicyclo[3.3.1]nonan-4-yl)-6-chloroimidazo[1,2-a]pyridine-8-carboxamide, dihydrochloride]
pKi [1]: 6.86 | Bezold Jarisch reflex (mice); % Inhibition @ Dose (IP) ([2]; 1 mg/kg i.p.): 68% | Bezold Jarisch reflex (mice); % Inhibition @ Dose (IP) ([2]; 3 mg/kg i.p.): 73% | Bezold Jarisch reflex (mice); % Inhibition @ Dose (IP) ([2]; 10 mg/kg i.p.): 87%

O=C(N[C@H]1[C@H]2C[C@@H]3CN(C2)C[C@@H]31)c1cc(Cl)cn2ccnc12 (relative stereo) [Example 9, (±)-endo-N-(Hexahydro-1H-2,5β-methano-3aα,6aα-cyclopenta[c]pyrrol-4α-yl)-6-chloroimidazo[1,2-a]pyridine-8-carboxamide, monohydrochloride]
pKi [1]: 7.19 | pIC50 [1, 4]: 7.80 and 6.90

O=C(N[C@H]1[C@H]2C[C@@H]3CN(C2)C[C@@H]31)c1cccn2ccnc12 (relative stereo) [Example 10, (±)-endo-N-(Hexahydro-1H-2,5β-methano-3aα,6aα-cyclopenta[c]pyrrol-4α-yl)imidazo[1,2-a]pyridine-8-carboxamide, hydrochloride]
pKi [1]: 6.91 | pIC50 [1, 4]: 6.70 and 6.61 | Bezold Jarisch reflex (mice); % Inhibition @ Dose (IP) ([2]; 10 mg/kg i.p.): 81%

CO[C@@H]1CN(CCCOc2ccc(F)cc2)CC[C@@H]1NC(=O)c1cccn2ccnc12 (relative stereo) [Example 13, Cis-N-[[3-(4-Fluorophenoxy)propyl]-3-methoxy-4piperidinylamine]imidazo[1,2-a]pyridine-8-carboxamide]
Bezold Jarisch reflex (mice); % Inhibition @ Dose (IP) ([2]; 10 mg/kg i.p.): 23%

CCc1cc(C(=O)N[C@H]2[C@H]3C[C@@H]4CN(C3)C[C@@H]42)c2ccccn12 (relative stereo) [Example 15, (±)-endo-N-(Hexahydro-1H-2,5β-methano-3aα,6aα-cyclopenta[c]pyrrol-4aα-yl)-3-ethylindolizine-1-carboxamide monohydrochloride]
pIC50 [1, 4]: 7.58

CCc1nc(C(=O)N[C@H]2[C@H]3C[C@@H]4CN(C3)C[C@@H]42)c2ccccn12 (relative stereo) [Example 16, (±)-endo-N-(Hexahydro-1H,2,5β-methano-3aα,6aα-cyclopenta[c]pyrrol-4α-yl)-3-ethylimidazo[1,5-a]pyridine-1-carboxamide, monohydrochloride]
pIC50 [1, 4]: 7.52

CN1C2CCCC1CC(NC(=O)c1nn(C)c3ccccc13)C2 (stereo not shown) [BRL-43694, reference compound]
minimal effective dose [2, 5]: 0.05 mg/kg

Cl.Cl.O=C(NC1CCN2CCCC1C2)c1cccn2ccnc12 (stereo not drawn) [Example 2, endo-N-(1-Azabicyclo[3.3.1]nonan-4-yl)imidazo[1,2-a]pyridine-8-carboxamide, dihydrochloride]
Bezold Jarisch reflex (mice); % Inhibition @ Dose (IP) ([2]; 5 mg/kg i.p.): 1% | Bezold Jarisch reflex (mice); % Inhibition @ Dose (IP) ([2]; 10 mg/kg i.p.): 53%

CN1[C@@H]2CC[C@H]1C[C@@H](NC(=O)c1cc(Cl)cn3ccnc13)C2 [Example 3, endo-N-(8-Methyl-8-azabicyclo [3.2.1]octan-3-yl)-6-chloroimidazo[1,2-a]pyridine-8-carboxamide, dihydrochloride]
pKi [1]: 7.30 | pIC50 [1, 4]: 7.71 and 7.00

CN1[C@@H]2CC[C@H]1C[C@@H](NC(=O)c1cccn3ccnc13)C2 [Example 4, endo-N-(8-methyl-8-azabicyclo[3.2.1]octan-3-yl)imidazo [1,2-a]pyridine-8-carboxamide, hydrochloride]
pKi [1]: 6.38 | pIC50 [1, 4]: 6.30 and 6.08 | Bezold Jarisch reflex (mice); % Inhibition @ Dose (IP) ([2]; 3 mg/kg i.p.): 2% | Bezold Jarisch reflex (mice); % Inhibition @ Dose (IP) ([2]; 10 mg/kg i.p.): 82%

CN1[C@@H]2CC[C@H]1C[C@H](NC(=O)c1cccn3ccnc13)C2 [Example 5, exo-N-(8-methyl-8-azabicyclo[3.2.1]octan-3-yl)imidazo[1,2-a]pyridine-8-carboxamide, hydrochloride]
pKi [1]: 6.50 | pIC50 [1, 4]: 6.32 and 6.20 | Bezold Jarisch reflex (mice); % Inhibition @ Dose (IP) ([2]; 10 mg/kg i.p.): 80%

CN1[C@@H]2CCC[C@H]1C[C@@H](NC(=O)c1cc(Cl)cn3ccnc13)C2 [Example 6, endo-N-(9-Methyl-9-azabicyclo[3.3.1]nonan-3-yl)-6-chloroimidazo[1,2-a]pyridine-8-carboxamide hydrochloride]
pKi [1]: 8.31

O=C(NC1CN2CCC1CC2)c1cc(Cl)cn2ccnc12 (stereo not shown) [Example 7, N-(1-Azabicyclo[2.2.2]octan-3-yl)-6-chloroimidazo[1,2-a]pyridine-8-carboxamide dihydrochloride]
pKi [1]: 7.92 | pIC50 [1, 4]: 7.76 and 7.64

O=C(NC1CN2CCC1CC2)c1cccn2ccnc12 (stereo not shown) [Example 8, N-(1-Azabicyclo[2.2.2]octan-3-yl)imidazo[1,2-a]pyridine-8-carboxamide, dihydrochloride]
pIC50 ([1]; read-out: 5-HT3 binding: NG108-15 cells IC50, several examples have two IC50 values): 7.15 | Bezold Jarisch reflex (mice); % Inhibition @ Dose (IP) ([2]; 0.5 mg/kg i.p.): 82% | Bezold Jarisch reflex (mice); % Inhibition @ Dose (IP) ([2]; 2.5 mg/kg i.p.): 88% | Bezold Jarisch reflex (mice); % Inhibition @ Dose (IP) ([2]; 5 mg/kg i.p.): 95% | Bezold Jarisch reflex (mice); % Inhibition @ Dose (IP) ([2]; 10 mg/kg i.p.): 100%

O=C(NC1C2CC3CC1CN(C3)C2)c1cc(Cl)cn2ccnc12 (stereo not drawn) [Example 11, exo-N-(1-azatricyclo[3.3.1.1^3,7]decan-4-yl)-6-chloroimidazo[1,2-a]pyridine-8-carboxamide, monohydrochloride]
pIC50 [1, 4]: < 7.00

CCN(CC)CCNC(=O)c1cccn2ccnc12 [Example 12, N-[2-(Diethylamino)ethyl]imidazo[1,2-a]pyridine-8-carboxamide]
pIC50 [1, 4]: 7.77

Cc1[nH]cnc1CCC(=O)c1cn(C)c2ccccc12 [GR65630]
Bmax ([3]; [3H]-GR65630, rat cortex membranes): 154 fmol/mg protein | Specific Binding ([3]; [3H]-GR65630, non-specific binding with 1 uM ICS 205-930): 70

Cc1nccn1CC1CCc2c(c3ccccc3n2C)C1=O (stereo not shown) [GR-38032, reference compound]
minimal effective dose [2, 6]: 0.5 mg/kg

CN1[C@@H]2CC[C@H]1C[C@@H](OC(=O)c1c[nH]c3ccccc13)C2 [ICS 205-930]
Hill Coefficient [3]: 1.0

c1ccc2nc(N3CCNCC3)ccc2c1 [Quipazine]
Hill Coefficient [3]: 0.86

COc1ccc2[nH]cc(C3=CCNCC3)c2c1 [RU24969]
Hill Coefficient [3]: 1.0

COc1cc(N)c(Cl)cc1C(=O)NC1CN2CCC1CC2 (stereo not shown) [Zacopride]
Hill Coefficient [3]: 0.86

COc1cc(N)c(Cl)cc1C(=O)NC1CCN(CCCOc2ccc(F)cc2)CC1OC (stereo not shown) [cisapride, reference compound]
minimal effective dose [2, 6]: 5 mg/kg

CN1CCC(=C2c3ccccc3C=Cc3ccccc32)CC1 [cyproheptadine, reference compound]
minimal effective dose [2, 6]: 5 mg/kg

O=c1[nH]c2ccccc2n1CCCN1CCC(n2c(=O)[nH]c3cc(Cl)ccc32)CC1 [domperidone, reference compound]
minimal effective dose [2, 5]: > 10 mg/kg

O=C(c1ccc(F)cc1)C1CCN(CCn2c(=O)[nH]c3ccccc3c2=O)CC1 [ketanserin, reference compound]
minimal effective dose [2, 6]: > 10 mg/kg

CNC1(C)C2CCC(C2)C1(C)C (stereo not shown) [mecamylamine, reference compound]
minimal effective dose [2, 6]: 2.5 mg/kg

CC[C@@H](CO)NC(=O)[C@@H]1C=C2c3cccc4c3c(cn4C)C[C@H]2N(C)C1 [methysergide, reference compound]
minimal effective dose [2, 5]: > 10 mg/kg

CCN(CC)CCNC(=O)c1cc(Cl)c(N)cc1OC [metoclopramide, reference compound]
minimal effective dose [2, 5]: 5 mg/kg

CN1[C@@H]2C[C@@H](OC(=O)[C@H](CO)c3ccccc3)C[C@H]1[C@@H]1O[C@@H]12 [scopolamine, reference compound]
minimal effective dose [2, 5]: 2.5 mg/kg
